Test results: patent US11382985B2, “Anti-tumour immune responses to modified self-epitopes” (Scancell Limited, priority 2015, dated 2022)
Square brackets hold non-standard residues; d marks the D form. Ends that are not written are not given here. Cit = NC(=O)NCCC[C@H](N)C(=O)O

Tested on: splenocytes
Test: Screening of citrullinated Enolase peptide pools, ex vivo IFNγ Elispot, DR4 mice
Format: in vivo, transgenic DR4 mouse
Settings: single immunisation with pool of 4-6 human citrullinated peptides, 20 μg each, CpG/MPLA, day 14, label = peptide used for restimulation
Procedure: C57BL/6 mice (Charles River, UK), HLA-DR4 mice (Taconic, USA), HHDII/DR1 mice (Pasteur institute, France) and the HHD/HLA-DP4 transgenic strain of mouse as described in patent WO2013/017545 A1 (EMMA repository, France) were used, aged between 8 and 12 weeks, and cared for by the staff at Nottingham Trent University. All work was carried out under a Home Office project licence. Peptides were dissolved in PBS to 1 mg/ml and then emulsified (a series of dilutions) with different adjuvants: CpG and MPLA 6 μg/mouse of each (Invivogen, UK), Incomplete Freund's 50 μl/mouse (Sigma, UK), poly I:C 10 μg/mouse (Invivogen, UK), Imiquimod 25 μg/mouse (Invivogen, UK) and GMCSF 10 μg/mouse (Peprotech, UK). […]
Elispot assays were performed using murine IFNγ, IL-17 and IL-10 capture and detection reagents according to the manufacturer's instructions (Mabtech, Sweden). […] After incubation, captured IFN and IL-10 were detected by biotinylated anti-IFNγ and IL-10 antibodies and developed with a streptavidin alkaline phosphatase and chromogenic substrate. Spots were analysed and counted using an automated plate reader (Cellular Technologies Ltd).
Screening was performed to identify potential citrullinated Enolase epitopes in mice. […] After 14 days the mice were culled and the immune responses to each peptide within the immunising pool were assessed by ex vivo Elispot (FIG. 2). […]

## VIGMDVAASEFF-CIT-SGKYDLD (VIGMDVAASEFF[Cit]SGKYDLD; listed as Homo sapiens) [Enolase 241cit]
  IFNγ response to peptide compared to media: significant response
